Experimental data as given in patent US20040005294A1, “IGFBP-3 in the diagnosis and treatment of cancer” (priority 2002, published 2004).

Columns and labels:
Assay type in all cases: cell-based, human
NHBE cells [1] = assay: MTT proliferation assay, NHBE cells (deguelin); settings: 10^−9 M to 10^−7 M
Protocol: To measure the effects of deguelin on cell proliferation, NHBE, 1799, 1198, 1170-1, and HB56B cells were plated at concentrations of 2×10^3 to 4×10^3 cells/well in 96-well plates. The next day, cells were treated with either 0.1% DMSO as a diluent control or various concentrations of deguelin (final DMSO concentration=0.1%). At the end of the assay time period, cell proliferation was measured by the 3-(4,5-dimethylthiazol-2-yl)-2,5-diphenyltetrazolium bromide (MTT) assay as described (Lee et al., 2002). Six replicate wells were used for each analysis, and data from replicate wells are presented as means with 95% confidence intervals (CIs). For some experiments, the drug concentration required to inhibit cell growth by 50% (IC50) was determined by interpolation from dose-response curves. At least three independent experiments were performed.

NHBE cells [2] = assay: Apoptosis by TUNEL and DNA fragmentation, NHBE cells
Protocol: (§1) NHBE, premalignant (1799 and 1198), and malignant (1170-1) HBE (2×10^6) cells were exposed to various doses of deguelin or to DMSO (0.1%) for 3 days. Apoptosis was assessed by morphology, by a flow cytometry-based, modified terminal deoxynucleotidyl transferase dUTP nick end labeling (TUNEL) assay, and by the detection of fragmented DNA. For morphology, live cells were observed by light microscopy using a ×100 objective. For TUNEL analysis, both adherent and nonadherent cells were harvested and pooled, fixed with 1% paraformaldehyde and 70% ethanol, and processed using the APO-BrdU staining kit (Phoenix Flow Systems, San Diego, Calif.), a modified TUNEL assay, as described (Lee et al., 2002). Cells treated with DMSO were used to gate the control nonapoptotic populations and as a reference for cells treated with deguelin. An internal control (HL-60 cells treated with camptothecin to induce apoptosis) provided in the apoptosis detection kit was also used to ensure that the TUNEL reaction was occurring during the staining procedure. For the detection of fragmented nucleosomal DNA, cells were processed using the TACS apoptotic DNA laddering kit (Trevigen Inc., Gaithersburg, Md.), according to the manufacturer's recommended protocol.

NHBE cells [3] = assay: Cell cycle analysis by flow cytometry, NHBE cells; settings: 10^−7 M, 3 days
Protocol: NHBE and 1799 cells were plated at a concentration of 2×10^5 cells/well in six-well plates. The next day, cells were treated with deguelin (various concentrations) or DMSO (0.1%) for 3 days to achieve maximal antiproliferative effects (determined from growth curves). All cells (nonadherent and adherent) were harvested, fixed with 1% paraformaldehyde and 70% ethanol, stained with 50 μg/mL propidium iodide, and subjected to flow cytometric analysis to determine the percentage of cells in specific phases of the cell cycle (G1, S, and G2/M) as described (Sun et al., 1997). Flow cytometric analysis was performed using a Coulter EPICS Profile II flow cytometer (Coulter Corp., Miami, Fla.) equipped with a 488-nm argon laser. Approximately 10 000 events (cells) were evaluated for each sample. Two independent experiments were performed and one is presented.

1198 and 1170-1 cells = assay: Apoptosis by TUNEL and DNA fragmentation, 1198 and 1170-1 cells; settings: treatment for 1 day
Protocol: as §1, with “NHBE, premalignant (1799 and 1198), and malignant (1170-1) HBE (2×10^6) cells were exposed to various doses of deguelin or to DMSO (0.1%) for 3 days.” left out

squamous HBE cells = assay: Immunoblot of pAkt, pGSK-3β, caspase-3 and PARP, squamous HBE cells
Protocol: Whole cell lysates from 1×10^6 cells were prepared in lysis buffer as described (Lonardo et al., 2002). Equivalent amounts of protein were resolved by sodium dodecyl sulfate (SDS)-polyacrylamide gels (7.5%-12%) and transferred to a nitrocellulose membrane. After the membrane was blocked in Tris-buffered saline (TBS) containing 0.05% Tween 20 (TBST) and 5% (w/v) nonfat powdered milk, the membrane was incubated with primary antibody at the appropriate dilution in TBS-5% nonfat milk at 4° C. for 16 h. The membrane was then washed multiple times with TBST and incubated with the appropriate horseradish peroxidaseconjugated secondary antibody for 1 h at room temperature. The protein-antibody complexes were detected by enhanced chemilurminescence (ECL kit; Amersham, Arlington Heights, Ill.), according to the manufacturer's recommended protocol.
To determine whether deguelin-induced antiproliferative effects on premalignant HBE cells were mediated through the inhibition of the PI3K/Akt pathway, 2×10^5 1799 cells/well or 1×10 ^6 squamous HBE cells/well in six-well plates were infected with 5×10 ^3 particles/cell of a control virus (Ad5CMV) or with 1×10^3 or 5×10^3 particles/cell of Ad5CMV-MyrAkt-HA, an adenoviral vector that expresses a constitutively active Akt. […] Apoptosis was analyzed using the APO-BrdU staining kit for TUNEL, Western blot analyses for caspase-3, and the cleavage of PARP.

**Q.** Which results are given for `COc1cc2c(cc1OC)[C@@H]1C(=O)c3ccc4c(c3O[C@@H]1CO2)C=CC(C)(C)O4` [deguelin, Deguelin]?
**A.** effect on growth of NHBE cells (NHBE cells [1]): minimal effect; apoptosis (TUNEL, DNA fragmentation) (NHBE cells [2]): neither a TUNEL-positive cell population nor fragmented DNA; cell cycle distribution (NHBE cells [3]): No detectable cell cycle changes; apoptotic events (1198 and 1170-1 cells): did not induce detectable apoptotic events; levels of pAkt and pGSK-3β (squamous HBE cells): decreased the levels of pAkt and pGSK-3β in a time-dependent manner; PARP cleavage (squamous HBE cells; 10^−9 M to 10^−7 M, 1 day): increased PARP cleavage
